Values quoted from earlier work, collected in patent US10980792B2, “Formulations of Cabozantinib” (Zhuhai Beihai Biotech Co., Ltd., priority 2016, dated 2021).

COc1cc2nccc(Oc3ccc(NC(=O)C4(C(=O)Nc5ccc(F)cc5)CC4)cc3)c2cc1OC [Cabozantinib, cabozantinib]
protein bound in human plasma (human plasma): ≥ 99.7%
solubility in water: practically insoluble
